Measurements taken from patent publication US6177572A, “Solid and liquid-phase synthesis of benzoxazoles and benzothiazoles and their use” (Sepracor, Inc., priority 1997, dated 2001).

Assays:
Type in all cases: cell-based
Saccharomyces = assay: Modified Kirby-Bauer Assay Against Saccharomyces; details: 10 mg/ml
Experimental: (§1) Modified Kirby-Bauer Susceptibility Testing (see, e.g., Finegold et al. "Diagnostic Microbiology," 6th Ed., C. V. Mosby Co., St. Louis, (1982), pp. 542-543: Microorganisms are grown on a solid medium in order to ensure a pure homogeneous culture. This requires an 18-24 hour grow out. Once purity is determined, the microorganism is sub-cultured by picking off one to three colonies from the solid medium using a sterile loop, and placing the colonies onto an appropriate liquid medium (e.g., Brain Heart Infusion for bacteria and Sabouraud's Dextrose for yeast or fungi). The microorganisms are then allowed to grow for 4-6 hours at the appropriate atmospheric and temperature conditions. After the 4-6 hour grow out, the microorganisms are ready for testing.
(§2) The MacFarland standard is prepared by mixing Barium Chloride with sulfuric acid in the appropriate proportions, as is known in the art (see, e.g. Finegold et al., supra). Once the cultures have been standardized, sterile cotton swabs are used to apply the microorganisms to agar plates for testing. The plates are swabbed in three different directions, rotating the plates 60 each time. After the microorganisms have been applied to the plate, 10-12 paper disks (1/4") in diameter are spaced evenly around the plate. […] The zones are measured in millimeters and recorded. […]

Candida = assay: Modified Kirby-Bauer Assay Against Candida; details: 10 mg/ml
Experimental: as §1, §2

Staphylococcus aureus = assay: Modified Kirby-Bauer Assay Against Staphylococcus aureus; details: read-out: zone size of inhibited microbial growth (diameter), control
Experimental: as §1, §2

E. Coli = assay: Modified Kirby-Bauer Assay Against E. Coli; details: Escherichia coli, control, 10 mg/ml, read-out: zone size of inhibited microbial growth (diameter), control
Experimental: as §1, §2

SMILES	zone size of inhibited microbial growth (diameter), control (Saccharomyces) [mm]	zone size of inhibited microbial growth (diameter), control (Candida) [mm]	zone of inhibition at 10000 µg/mL (Staphylococcus aureus) [mm]	zone of inhibition at 10000 µg/mL (E. Coli) [mm]
CCC(C)n1ncn(-c2ccc(N3CCN(c4ccc(OCC5COC(Cn6cncn6)(c6ccc(Cl)cc6Cl)O5)cc4)CC3)cc2)c1=O (single isomer, unassigned; (+)) [(+) cis-itraconazole]	12	12		
CCC(C)n1ncn(-c2ccc(N3CCN(c4ccc(OCC5COC(Cn6cncn6)(c6ccc(Cl)cc6Cl)O5)cc4)CC3)cc2)c1=O (single isomer, unassigned; (-)) [(-) cis itraconazole]	15	15		
CN(C)C1C(O)=C(C(N)=O)C(=O)C2(O)C(O)=C3C(=O)c4c(O)cccc4C(C)(O)C3CC12 (stereo not drawn) [Tetracylcine]			25	22
